From publication PMC4774911, “Biochemical Screening of Five Protein Kinases from Plasmodium falciparum against 14,000 Cell-Active Compounds” (PLoS ONE, 2016)
Values joined by “and” are separate entries in the source; they are usually repeats but may differ in a detail not shown here. Equal entries are not always repeated.

Experiments:
Assay in all cases: biochemical
AURKB = AURKB (Homo sapiens, UniProt Q96GD4)
AXL = biological target: T1, AXL (Homo sapiens, UniProt P30530)
T1 sequence (P30530 1-894): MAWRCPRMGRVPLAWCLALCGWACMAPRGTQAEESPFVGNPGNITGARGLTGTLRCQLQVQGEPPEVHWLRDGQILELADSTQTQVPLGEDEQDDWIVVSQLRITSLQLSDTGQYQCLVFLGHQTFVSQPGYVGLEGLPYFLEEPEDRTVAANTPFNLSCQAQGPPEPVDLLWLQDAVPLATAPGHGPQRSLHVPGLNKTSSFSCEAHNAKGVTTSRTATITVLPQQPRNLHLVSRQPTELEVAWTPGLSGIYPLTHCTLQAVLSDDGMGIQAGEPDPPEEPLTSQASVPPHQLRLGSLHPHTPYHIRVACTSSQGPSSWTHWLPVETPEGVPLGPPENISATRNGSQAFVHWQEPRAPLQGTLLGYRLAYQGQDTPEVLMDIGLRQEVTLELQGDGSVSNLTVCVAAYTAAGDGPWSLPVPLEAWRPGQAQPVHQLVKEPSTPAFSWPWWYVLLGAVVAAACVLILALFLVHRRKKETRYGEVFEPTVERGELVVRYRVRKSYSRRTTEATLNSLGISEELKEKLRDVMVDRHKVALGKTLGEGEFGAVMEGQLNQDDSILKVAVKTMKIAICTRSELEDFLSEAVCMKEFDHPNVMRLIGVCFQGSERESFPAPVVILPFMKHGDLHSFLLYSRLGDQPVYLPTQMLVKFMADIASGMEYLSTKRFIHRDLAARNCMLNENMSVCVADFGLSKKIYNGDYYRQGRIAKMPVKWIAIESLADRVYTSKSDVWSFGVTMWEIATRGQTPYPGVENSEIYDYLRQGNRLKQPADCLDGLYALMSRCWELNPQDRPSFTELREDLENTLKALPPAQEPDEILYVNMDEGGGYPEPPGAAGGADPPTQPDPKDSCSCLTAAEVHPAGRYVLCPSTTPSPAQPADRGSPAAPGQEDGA

CSNK1E = CSNK1E (Homo sapiens, UniProt P49674)
GAK = biological target: T2, GAK (Homo sapiens, UniProt O14976)
T2 sequence (O14976 1-1311): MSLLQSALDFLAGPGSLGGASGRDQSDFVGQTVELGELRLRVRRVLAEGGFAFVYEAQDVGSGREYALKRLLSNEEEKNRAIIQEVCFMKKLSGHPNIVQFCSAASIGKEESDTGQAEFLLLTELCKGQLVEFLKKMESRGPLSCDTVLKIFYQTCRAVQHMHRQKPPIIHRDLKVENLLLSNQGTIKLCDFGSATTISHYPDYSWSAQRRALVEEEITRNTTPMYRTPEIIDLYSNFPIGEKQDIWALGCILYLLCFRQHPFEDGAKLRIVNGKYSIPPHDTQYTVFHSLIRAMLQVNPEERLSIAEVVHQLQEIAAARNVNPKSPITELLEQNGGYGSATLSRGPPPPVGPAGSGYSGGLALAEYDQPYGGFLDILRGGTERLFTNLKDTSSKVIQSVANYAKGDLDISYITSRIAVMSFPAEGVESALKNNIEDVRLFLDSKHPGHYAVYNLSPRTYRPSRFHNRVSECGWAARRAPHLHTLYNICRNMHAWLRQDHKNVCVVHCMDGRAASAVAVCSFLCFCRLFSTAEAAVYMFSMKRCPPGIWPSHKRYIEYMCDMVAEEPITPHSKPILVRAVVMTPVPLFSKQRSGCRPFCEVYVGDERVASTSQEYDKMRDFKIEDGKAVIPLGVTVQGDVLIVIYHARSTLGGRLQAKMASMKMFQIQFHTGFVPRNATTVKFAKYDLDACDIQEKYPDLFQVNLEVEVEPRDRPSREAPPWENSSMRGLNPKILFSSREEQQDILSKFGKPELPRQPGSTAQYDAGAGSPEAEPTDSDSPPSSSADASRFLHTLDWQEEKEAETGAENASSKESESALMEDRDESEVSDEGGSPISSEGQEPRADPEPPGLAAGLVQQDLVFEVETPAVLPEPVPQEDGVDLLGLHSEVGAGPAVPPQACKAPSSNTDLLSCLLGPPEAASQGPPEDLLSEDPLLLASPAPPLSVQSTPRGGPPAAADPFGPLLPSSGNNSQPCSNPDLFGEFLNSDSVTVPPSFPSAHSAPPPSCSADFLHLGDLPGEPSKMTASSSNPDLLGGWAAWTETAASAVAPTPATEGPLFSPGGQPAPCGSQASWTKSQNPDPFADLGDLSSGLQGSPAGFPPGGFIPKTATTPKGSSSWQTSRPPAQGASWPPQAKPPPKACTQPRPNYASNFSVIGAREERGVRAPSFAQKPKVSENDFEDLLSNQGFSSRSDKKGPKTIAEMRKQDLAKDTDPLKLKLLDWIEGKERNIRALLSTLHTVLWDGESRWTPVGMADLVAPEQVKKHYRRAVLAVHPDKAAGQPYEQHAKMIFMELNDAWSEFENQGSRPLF

RIPK2 = RIPK2 (Homo sapiens, UniProt O43353)
RIPK2, sequence (O43353 whole entry): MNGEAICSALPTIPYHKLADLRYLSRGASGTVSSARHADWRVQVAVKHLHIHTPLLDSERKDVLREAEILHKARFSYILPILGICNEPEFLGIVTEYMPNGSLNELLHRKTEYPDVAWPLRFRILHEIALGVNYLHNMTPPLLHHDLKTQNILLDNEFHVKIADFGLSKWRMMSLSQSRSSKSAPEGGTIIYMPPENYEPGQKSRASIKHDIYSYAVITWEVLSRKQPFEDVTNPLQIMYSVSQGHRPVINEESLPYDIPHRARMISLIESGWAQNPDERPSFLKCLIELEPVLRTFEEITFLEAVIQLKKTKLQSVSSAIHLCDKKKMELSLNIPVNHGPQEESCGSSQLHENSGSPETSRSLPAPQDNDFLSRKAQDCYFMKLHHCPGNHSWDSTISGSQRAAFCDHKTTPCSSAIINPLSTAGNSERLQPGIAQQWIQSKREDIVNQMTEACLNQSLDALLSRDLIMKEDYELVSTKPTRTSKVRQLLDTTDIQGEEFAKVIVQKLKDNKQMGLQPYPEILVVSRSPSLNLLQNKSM

CSNK1E, sequence (P49674 whole entry): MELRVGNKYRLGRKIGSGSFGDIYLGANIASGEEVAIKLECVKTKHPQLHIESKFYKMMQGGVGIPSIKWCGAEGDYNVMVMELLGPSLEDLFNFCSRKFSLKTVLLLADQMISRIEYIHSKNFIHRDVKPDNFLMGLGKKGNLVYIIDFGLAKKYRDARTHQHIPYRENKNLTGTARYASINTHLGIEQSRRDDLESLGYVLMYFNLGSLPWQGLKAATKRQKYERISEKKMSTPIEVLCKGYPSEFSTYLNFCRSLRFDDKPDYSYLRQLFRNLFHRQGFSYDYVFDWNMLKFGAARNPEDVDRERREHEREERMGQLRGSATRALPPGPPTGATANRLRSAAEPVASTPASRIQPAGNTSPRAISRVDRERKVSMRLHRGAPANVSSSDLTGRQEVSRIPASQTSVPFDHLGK
AURKB, sequence (Q96GD4 whole entry): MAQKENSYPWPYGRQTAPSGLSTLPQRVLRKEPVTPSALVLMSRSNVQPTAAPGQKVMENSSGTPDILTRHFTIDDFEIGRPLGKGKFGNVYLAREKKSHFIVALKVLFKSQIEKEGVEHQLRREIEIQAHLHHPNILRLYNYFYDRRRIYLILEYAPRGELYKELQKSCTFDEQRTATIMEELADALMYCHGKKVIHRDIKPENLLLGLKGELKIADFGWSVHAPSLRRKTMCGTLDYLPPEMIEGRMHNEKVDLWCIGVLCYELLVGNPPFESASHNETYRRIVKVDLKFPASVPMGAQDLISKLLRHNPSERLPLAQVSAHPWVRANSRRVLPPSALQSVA

`CN1CCN(c2ccc(Nc3ncc(C#N)c(Nc4ccccc4C(N)=O)n3)cc2)CC1.Cl` [TCMDC-134116] was tested, and the IC50 (AURKB) was 40 nM and 64 nM, the IC50 (AXL) was 500 nM and 550 nM and the IC50 (CSNK1E) was 1600 nM and 4100 nM. The IC50 (GAK) was 82 nM and 100 nM and the IC50 (RIPK2) was 810 nM.
With `Cl.NCC1(c2nc(-c3ccc(Cl)c(O)c3)c(-c3ccncc3)[nH]2)CCCCC1` [TCMDC-141154] the IC50 (AURKB) was > 20000 nM, the IC50 (AXL) was > 20000 nM and the IC50 (CSNK1E) was 330 nM. The IC50 (GAK) was > 20000 nM and the IC50 (RIPK2) was 43 nM and 52 nM.
For `CN(C)CC(O)COc1ccc(Nc2ncc([N+](=O)[O-])c(Nc3ccccc3O)n2)cc1.O=C(O)C(F)(F)F` (stereo not drawn) [TCMDC-141399], the IC50 (AURKB) was 4200 nM, the IC50 (AXL) was > 20000 nM and the IC50 (CSNK1E) was > 20000 nM. For the same molecule, the IC50 (GAK) was 1500 nM and 2300 nM and the IC50 (RIPK2) was > 20000 nM.
